Assay results published in US20220000911A1, “COMBINATION OF GOLD COMPLEXES WITH OLAPARIB OR OTHER PARP1/2 INHIBITORS FOR USE IN THE TREATMENT OF CANCER RESISTANT TO SAID PARP1/2 INHIBITORS” (Varsity Pharmaceuticals Limited, priority 2020, published 2022).

Key:
Type in all cases: cell-based
[1] = tested on: wildtype A2780 ovarian cancer cells; assay: CellTiter Glo proliferation inhibition, wild-type A2780 cells; conditions: for Maximum inhibition observed in wild-type A2780 cells: concentration range 0.06 nM to 30,000 nM
Experimental: The A2780 cell line is an ovarian cancer cell line that was established from an ovarian endometroid adenocarcinoma tumour. […] It is commonly used as a model to observe the effects of, and test the potency of various chemicals, methods of delivery and treatments for ovarian cancer. […] The cells were diluted with culture medium and 40 μL of cell suspension (1000 cells/well) was added into each well of a 384-well cell culture plate. The plate was covered with a lid and left at room temperature without shaking for 30 minutes. The plate was then transferred to an incubator at 37° C. and 5% CO2 and left overnight. Test compounds were dissolved at a concentration of 30 mM in DMSO to create a stock solution. 45 μL of the stock solution was transferred to a 384 pp-plate. […] The plate was then spun at room temperature at 1,000 RPM for 1 minute. 40 nL of the diluted compound was then transferred from the compound source plate into the cell plate. The cell plate was then covered with a lid and placed in an incubator at 37° C. and 5% CO2 and left for 120 hours. 72 hours after treatment with the compound detection was conducted as discussed below. CellTiter Glo® reagents were thawed and equilibrated to room temperature. The cell plate was then removed from the incubator and equilibrated at room temperature for 15 minutes. 30 μL of the CellTiter Glo® reagents were then added into each well (at 1:1 to culture medium). The contents was mixed for 2 minutes on an orbital shaker to induce cell lysis and then the plates were allowed to incubate at room temperature for 30 minutes. Luminescence was then measured on an Envision reader (Perkin Elmer). The inhibition activity was calculated using the following formula: […]

[2] = tested on: olaparib resistant A2780 ovarian cancer cells; assay: CellTiter Glo proliferation inhibition, olaparib resistant A2780 cells, single agents; conditions: for Maximum inhibition observed in olaparib resistant A2780 cells: concentration range 0.06 nM to 30,000 nM
Experimental: A2780 ovarian cancer cells (wild-type “WT”) were cultured in RPMI 1640 Medium with 10% Fetal Bovine Serum (FBS).
To obtain cells resistant to olaparib, the cells were cultured in cell culture medium (RPMI 1640 Medium with 10% FBS) supplemented with 20 μM olaparib for one month in order to generate A2780 cells resistant to olaparib (“R”). After a month the cells were continuously cultured in the cell culture medium (RPMI 1640 Medium with 10% FBS) supplemented with 10 μM olaparib prior to use and for up to two months to maintain the resistance.
(§1) The cells were harvested from a flask into cell culture medium (RPMI 1640 Medium with 10% FBS) and then counted. The cells were diluted with culture medium and 40 μL of cell suspension (1000 cells/well) was added into each well of a 384-well cell culture plate. The plate was covered with a lid and left at room temperature without shaking for 30 minutes. The plate was then transferred to an incubator at 37° C. and 5% CO2 and left overnight.
Test compounds were dissolved at a concentration of 30 mM in DMSO to create a stock solution. 45 μL of the stock solution was transferred to a 384 pp-plate. […] The plate was then spun at room temperature at 1,000 RPM for 1 minute. 40 nL of the diluted compound was then transferred from the compound source plate into the cell plate. The cell plate was then covered with a lid and placed in an incubator at 37° C. and 5% CO2 and left for 120 hours. 72 hours after treatment with the compound detection was conducted as discussed below.
(§2) CellTiter Glo® reagents were thawed and equilibrated to room temperature. The cell plate was then removed from the incubator and equilibrated at room temperature for 15 minutes. 30 μL of the CellTiter Glo® reagents were then added into each well (at 1:1 to culture medium). The contents was mixed for 2 minutes on an orbital shaker to induce cell lysis and then the plates were allowed to incubate at room temperature for 30 minutes. Luminescence was then measured on an Envision reader (Perkin Elmer).
The inhibition activity was calculated using the following formula:
(§3) Inhibition (%)=100×(Lumvehicle−Lumsample)/(Lumvehicle−Lumblank),
where Lumvehicle is the luminescence of cells treated with 0.1% DMSO and Lumblank is cells in the culture medium.
The IC50 was calculated by fitting the curve using Xlfit (v5.3.1.3), equation 201: […]

[3] = tested on: olaparib resistant HCC1937 triple negative breast cancer cells; assay: Proliferation inhibition of olaparib resistant HCC1937 cells, single agents
Experimental: as §1
Test compounds were dissolved at a concentration of 30 mM in DMSO to create a stock solution. 45 μL of the stock solution was transferred to a 384 pp-plate. A 3-fold, 10-point dilution was performed by transferring 15 μL of the compound solution into 30 μL DMSO by using TECAN (EVO200) liquid handler. The plate was then spun at room temperature at 1,000 RPM for 1 minute. 40 nL of the diluted compound was then transferred from the compound source plate into the cell plate. The cell plate was then covered with a lid and placed in an incubator at 37° C. and 5% CO2 and left for 120 hours. 72 hours after treatment with the compound detection was conducted as discussed below.
as §2, §3
The methods were as described in examples 1 and 2, except the HCC1937 cell line was used.
The HCC1937 cell line was established from a primary breast carcinoma from a patient with a germ-line BRCA1 mutation. It is an example of a triple-negative breast cancer (TNBC) cell line. Breast cancer patients routinely have the expression of estrogen receptor (ER), progesterone receptor (PR), and amplification of HER-2/Neu evaluated. […] The latter group is referred to as triple-negative breast cancer based on the lack of these three molecular markers. TNBC represents approximately 10-15% of all breast cancers and patients with TNBC have a poor outcome compared to the other subtypes of breast cancer.

[4] = wildtype A2780, test conc. 1,111.11 nM
[5] = wildtype A2780, test conc. 3,333.33 nM
[6] = olaparib resistant A2780, test conc. 1,111.11 nM
[7] = olaparib resistant A2780, test conc. 3,333.33 nM

SMILES: Cn1ncnc1[C@H]1c2n[nH]c(=O)c3cc(F)cc(c23)N[C@@H]1c1ccc(F)cc1 [Talazoparib, talazoparib]
- IC50 ([1]; Homo sapiens, A2780): 19 nM
- inhibition at 60 pM ([1]; Homo sapiens, wildtype A2780, test conc. 0.06 nM, read-out: Mean Inhibition (n = 3)): 0.69%
- inhibition at 0.00017 µM ([1]; Homo sapiens, wildtype A2780, test conc. 0.17 nM, read-out: Mean Inhibition (n = 3)): -0.65%
- inhibition at 0.00051 µM ([1]; Homo sapiens, wildtype A2780, test conc. 0.51 nM, read-out: Mean Inhibition (n = 3)): 2.86%
- inhibition at 0.00152 µM ([1]; Homo sapiens, wildtype A2780, test conc. 1.52 nM, read-out: Mean Inhibition (n = 3)): 6.64%
- inhibition at 0.00457 µM ([1]; Homo sapiens, wildtype A2780, test conc. 4.57 nM, read-out: Mean Inhibition (n = 3)): 23.4%
- inhibition at 0.01372 µM ([1]; Homo sapiens, wildtype A2780, test conc. 13.72 nM, read-out: Mean Inhibition (n = 3)): 35.8%
- inhibition at 0.04115 µM ([1]; Homo sapiens, wildtype A2780, test conc. 41.15 nM, read-out: Mean Inhibition (n = 3)): 46.3%
- inhibition at 0.12346 µM ([1]; Homo sapiens, wildtype A2780, test conc. 123.46 nM, read-out: Mean Inhibition (n = 3)): 56.3%
- inhibition at 0.37037 µM ([1]; Homo sapiens, wildtype A2780, test conc. 370.37 nM, read-out: Mean Inhibition (n = 3)): 64.5%
- inhibition at 10 µM ([1]; Homo sapiens, wildtype A2780, test conc. 10,000 nM, read-out: Mean Inhibition (n = 3)): 77.6%
- inhibition at 30 µM ([1]; Homo sapiens, wildtype A2780, test conc. 30,000 nM, read-out: Mean Inhibition (n = 3)): 78.9%
- Maximum inhibition observed in wild-type A2780 cells [1]: 80%
- Mean Inhibition (n = 3) [1, 4]: 71.38%
- Mean Inhibition (n = 3) [1, 5]: 76.54%
- IC50 ([2]; Homo sapiens, A2780): 4310 nM
- inhibition at 60 pM ([2]; Homo sapiens, olaparib resistant A2780, test conc. 0.06 nM, read-out: Mean Inhibition (n = 3)): 5.28%
- inhibition at 0.00017 µM ([2]; Homo sapiens, olaparib resistant A2780, test conc. 0.17 nM, read-out: Mean Inhibition (n = 3)): -0.08%
- inhibition at 0.00051 µM ([2]; Homo sapiens, olaparib resistant A2780, test conc. 0.51 nM, read-out: Mean Inhibition (n = 3)): 6.18%
- inhibition at 0.00152 µM ([2]; Homo sapiens, olaparib resistant A2780, test conc. 1.52 nM, read-out: Mean Inhibition (n = 3)): 2.33%
- inhibition at 0.00457 µM ([2]; Homo sapiens, olaparib resistant A2780, test conc. 4.57 nM, read-out: Mean Inhibition (n = 3)): 3.63%
- inhibition at 0.01372 µM ([2]; Homo sapiens, olaparib resistant A2780, test conc. 13.72 nM, read-out: Mean Inhibition (n = 3)): 4.9%
- inhibition at 0.04115 µM ([2]; Homo sapiens, olaparib resistant A2780, test conc. 41.15 nM, read-out: Mean Inhibition (n = 3)): -1.18%
- inhibition at 0.12346 µM ([2]; Homo sapiens, olaparib resistant A2780, test conc. 123.46 nM, read-out: Mean Inhibition (n = 3)): 2.95%
- inhibition at 0.37037 µM ([2]; Homo sapiens, olaparib resistant A2780, test conc. 370.37 nM, read-out: Mean Inhibition (n = 3)): 9.21%
- inhibition at 10 µM ([2]; Homo sapiens, olaparib resistant A2780, test conc. 10,000 nM, read-out: Mean Inhibition (n = 3)): 49%
- inhibition at 30 µM ([2]; Homo sapiens, olaparib resistant A2780, test conc. 30,000 nM, read-out: Mean Inhibition (n = 3)): 64.3%
- Maximum inhibition observed in olaparib resistant A2780 cells [2]: 66%
- Mean Inhibition (n = 3) [2, 6]: 15.45%
- Mean Inhibition (n = 3) [2, 7]: 34.89%
- Resistance of the olaparib resistant cells to other PARPis ([2]; olaparib resistant A2780 cells): resistant

SMILES: CC(=O)OC[C@H]1O[C@@H]([S-])[C@H](OC(C)=O)[C@@H](OC(C)=O)[C@@H]1OC(C)=O.CCP(CC)CC.[Au+] [Auranofin, auranofin]
- Maximum inhibition observed in wild-type A2780 cells [1]: 100%
- IC50 ([1]; wild-type A2780 cells): 101 nM
- Mean Inhibition (n = 3) ([1]; wildtype A2780, test conc. 1.52 nM): −1.87%
- Mean Inhibition (n = 3) ([1]; wildtype A2780, test conc. 4.57 nM): −0.74%
- Mean Inhibition (n = 3) ([1]; wildtype A2780, test conc. 13.72 nM): 2.52%
- Mean Inhibition (n = 3) ([1]; wildtype A2780, test conc. 41.15 nM): 21.08%
- Mean Inhibition (n = 3) ([1]; wildtype A2780, test conc. 123.46 nM): 56.32%
- Mean Inhibition (n = 3) ([1]; wildtype A2780, test conc. 370.37 nM): 86.25%
- Mean Inhibition (n = 3) [1, 4]: 98.39%
- Mean Inhibition (n = 3) [1, 5]: 100.15%
- Mean Inhibition (n = 3) ([1]; wildtype A2780, test conc. 10,000 nM): 100.17%
- Mean Inhibition (n = 3) ([1]; wildtype A2780, test conc. 30,000 nM): 100.20%
- Maximum inhibition observed in olaparib resistant A2780 cells [2]: 100%
- Mean Inhibition (n = 3) ([2]; olaparib resistant A2780, test conc. 1.52 nM): 4.64%
- Mean Inhibition (n = 3) ([2]; olaparib resistant A2780, test conc. 4.57 nM): 3.42%
- Mean Inhibition (n = 3) ([2]; olaparib resistant A2780, test conc. 13.72 nM): 12.34%
- Mean Inhibition (n = 3) ([2]; olaparib resistant A2780, test conc. 41.15 nM): 41.07%
- Mean Inhibition (n = 3) ([2]; olaparib resistant A2780, test conc. 123.46 nM): 78.31%
- Mean Inhibition (n = 3) ([2]; olaparib resistant A2780, test conc. 370.37 nM): 96.38%
- Mean Inhibition (n = 3) [2, 6]: 96.82%
- Mean Inhibition (n = 3) [2, 7]: 100.13%
- Mean Inhibition (n = 3) ([2]; olaparib resistant A2780, test conc. 10,000 nM): 100.19%
- Mean Inhibition (n = 3) ([2]; olaparib resistant A2780, test conc. 30,000 nM): 100.17%
- IC50 ([2]; olaparib resistant A2780 cells): 55 nM
- Mean Inhibition (n = 3) ([3]; test conc. 1.52 nM): −8.11%
- Mean Inhibition (n = 3) ([3]; test conc. 4.57 nM): 0.54%
- Mean Inhibition (n = 3) ([3]; test conc. 13.72 nM): −0.91%
- Mean Inhibition (n = 3) ([3]; test conc. 41.15 nM): 0.49%
- Mean Inhibition (n = 3) ([3]; test conc. 123.46 nM): 0.54%
- Mean Inhibition (n = 3) ([3]; test conc. 370.37 nM): 13.11%
- Mean Inhibition (n = 3) ([3]; test conc. 1,111.11 nM): 59.64%
- Mean Inhibition (n = 3) ([3]; test conc. 3,333.33 nM): 98.95%
- Mean Inhibition (n = 3) ([3]; test conc. 10,000 nM): 100.03%
- Mean Inhibition (n = 3) ([3]; test conc. 30,000 nM): 99.97%
